For one data set, the system named is P3028, dHSA, HSA. As to the kind of experiment: ELISA and competition ELISA with rabbit anti-3028 antiserum. Conditions: competition ELISA, serum L. In kind it is binding, human. On the procedure:
Duplicate wells in Hi-binding microtitre plates (Costar® 2592, Corning® Inc, NY, USA) were coated with 100 μl of P3028 (10 ug/ml), denatured HSA (denHSA, 4.5 ug/ml) or control HSA sample (4.5 ug/ml). All coating reagent were diluted in PBS and incubated at room temperature overnight. The wells where then washed with wash buffer consisting of 0.05% Tween-20 in PBS (Sigma®) followed by blocking for 1 hr at 25° C. with 200 μl 0.5% gelatin prepared from bovine skin (Sigma®) in PBS followed by washing in wash buffer. […] Biotinylated horse anti-rabbit/mouse IgG (Vectastain® ELITE, Vector® Laboratories Inc, CA, USA) diluted 1/5 in ELISA reagent diluent was then added and the plates incubated for 1 h at 25° C. followed by washing. Next, HRP-conjugated streptavidin (R&D Systems® Europe, Ltd, UK) was added. Finally, after washing in wash buffer, substrate solution consisting of H2O2 and tetramethylbenzidine (R&D Systems®) was added. The reaction was stopped with 1M H2504 and the optical density measured as absorbance (A) at dual wavelengths, 450 nm and 570 nm, with a Multiscan® EX microplate reader (Labsystems).
Two antisera, R and L, from two different rabbits were tested for their ability to bind human serum and denatured Human Serum Albumin (dHSA). […] No substantial binding was detected for wells with no coat 202. […]
(In general: In an ELISA, binding on a coated surface is turned into a signal by an enzyme label.)

The next data set relates to PBMCs. As to the kind of experiment: IL-2 induced proliferation of PBMCs, 3H-thymidine incorporation (human ex vivo model). In kind it is cell-based. Conditions: for inhibition of IL-2 induced proliferation: PBMCs from healthy control samples, 7 days, 3H-thymidine; for neutralization of the inhibitory effect of P3028 on IL-2 induced proliferation: fragments alone or in combination. How it is done:
100 μl of RPMI1640 supplemented with 200 IU/ml penicillin, […] streptomycin, 4 mM L-glutamine (all from Sigma® Chemical Co. MO, US) and 20% heat-inactivated human serum (autologous or from cancer patients) were added to uncoated, HSA or HSA/IgG coated tissue culture microtiter plates. PBMC, isolated from healthy individuals or patients with metastatic renal cell carcinoma, were diluted in RPMI/2% HSA at a concentration of 5×10^5/ml and 100 μl were added to the microtiter wells. Interleukin-2 (IL-2, Proleukin®, Chiron®, NL), at a final concentration of 120 IU/well, was added to some wells. Cells were cultured for 7 days in a humidified, 5% CO2-atmosphere at 37° C. Proliferation was assayed by incorporation of 1.6 μCi/well of [^3H]-thymidine (Amersham® Int., UK) during the last 18 hrs. Mean values of dpm (disintegrations per minute) of triplicates were used for the calculations.
Cultures for IL-2 induced proliferation was set up with PBMC from healthy donors and autologous serum as described above with the exception that PBMC were first pre-incubated for 30 min at room temperature with the indicated albumin peptides at a concentration of 10 μg/ml.
Round-bottomed, 96-well tissue culture plates (Costar®, Corning® Inc. NY, US) were pre-coated with HSA only or HSA and pooled human IgG for intravenous injection (Gammagard®, Baxter AS, DK) as follows; HSA was diluted in RPMI1640 without supplements to a concentration of 10 mg/ml. A mixture of 1 mg/ml IgG in a solution of 9 mg/ml HSA in RPMI (HSA/IgG) was also prepared. 200 μl of HSA or HSA/IgG were then added to each well of the plate. The plates were incubated at 4° C. for 30 minutes after which the wells were washed twice with 200 μl of RPMI1640. The coated plates were used immediately. 100 μl of RPMI1640 supplemented with 200 IU/ml penicillin, […] streptomycin, 4 mM L-glutamine (all from Sigma® Chemical Co. MO, US) and 20% heat-inactivated human serum (autologous) were added to the HSA or HSA/IgG coated tissue culture microtiter wells. PBMC, isolated from healthy individuals, were diluted in RPMI/2% HSA and peptides were added directly to the cell suspension at a concentration of 10 μg/ml. One hundred μl of this cell suspension (5×10^4 lymphocytes) was then added per well providing a final concentration of 5 μg/ml peptide per well. IL-2 (Proleukin®, Chiron®, NL), at a final concentration of 120 IU/well, was added to the wells. Cells were cultured for 7 days in a humidified, 5% CO2-atmosphere at 37° C. Proliferation was assayed by incorporation of 1.6 μCi/well of [^3H]-thymidine (Amersham® Int., UK) during the last 18 hrs. Mean values of dpm (disintegrations per minute) of triplicates were used for the calculations.
The model included PBMCs isolated from venous blood samples from healthy blood donors (control samples) or cancer patients. One hundred pI of culture medium (RPMI 1640 Dutch's modification (Gibco®, InVitrogenAB®, Stockholm, Sweden) supplemented with 200 IV/ml penicillin, 200 ug/ml streptomycin, 4 mM L-glutamine (all from Sigma® Chemical Co. MO, US) and 20% heat-inactivated human serum) were added to roundbottomed, 96-well tissue culture plates (Costar®, Corning® Inc. NY, US). […] Control sample wells without IL-2 was set up in parallel. […]
The effect of different peptides on IL-2 induced proliferation was analyzed in the human ex vivo model, using PBMCs from healthy control samples. […] Proliferation was measured as incorporation of ^3H-thymidine during the final 18 hours. […]
A general note: Incorporation of labelled thymidine or its analogues reports DNA synthesis.

Another data set in a line: Solubility. In kind it is physicochemical.
The subject of the next data set is K562 target cells. As to the kind of experiment: NK-cell cytotoxicity (NKTEST, flow cytometry). In kind it is cell-based, human. Conditions: 10 ug/ml peptide, effector:target 40:1, four donors. How it is done: The NK-cell cytotoxic activity of blood mononuclear cells from four healthy donors was tested. Mononuclear cells were separated by standard Ficoll-Paque® Plus (Pharmacia AB, Sweden) density gradient centrifugation from heparinized blood obtained from healthy donors. NK cell cytotoxic activity of the mononuclear cells was then tested using a commercial kit (NKTEST, Orpegen Pharma GmblI, Heidelberg, Germany) following the manufacturers protocol. Briefly, the kit contains cryopreserved, NK-sensitive target cells (K562) labeled with a lipophilic green fluorescent membrane dye, which enables discrimination of effector and target cells. After incubation with effector cells, killed target cells are identified by a DNA-stain, which penetrates and specifically stain the nuclei of dead target cells. This way the percentage of killed targets can be determined by flow cytometry. The mononuclear cells were preincubated for 30 min at 37° C. with the indicated peptides (peptides have been described previously) at 10 ug/ml. Target cells were then added, giving an effector:target ratio of 40:1, and the cell mixture incubated at 37° C. for 3-4 hours. Samples were analysed on a FACSCalibur (BD® Biosciences, San Jose, Calif.).
In general terms: Flow cytometry measures light scatter and fluorescence of single cells or particles in a stream.

The next data set addresses P3028 (Homo sapiens, UniProt P02768). As to the kind of experiment: Binding of His-tag labeled P3028 to looped (cyclic) peptides on chips, ELISA. As to conditions: positional scan of looped 6-meres. How it is done:
In order to identify cyclic peptides that bind to P3028, all possible variants of di- and tripeptides were synthesized on chips and the binding of the His-tag labeled P 3028 was analyzed using the ELISA-technique. Based on the identified binding motifs, looped 6-meres were produced and tested. […] Positional scans were performed in each position of the lead cyclic peptide was replaced with each of the other 19 L-amino acids. Binding of each of the substituted peptides was tested, and peptide sequences with even better binding capacity than that of the lead peptide were identified.

Peptide text beside a SMILES is read from it.

Consider “EPQNLIK (listed as Homo sapiens) [P3218]”, for which the “binding of rabbit anti-P3028 serum antibodies to P3028 fragments” value with P3028, dHSA, HSA is listed as “not”. In the data set on PBMCs, the “inhibition of IL-2 induced proliferation” value is listed as “much weaker” and the “neutralization of the inhibitory effect of P3028 on IL-2 induced proliferation” value is recorded as “do not inhibit”. For the molecule `CC(C)C[C@H](NC(=O)[C@H](CO)NC(=O)[C@H](CC(C)C)NC(=O)[C@H](Cc1ccc(O)cc1)NC(=O)[C@@H](NC(=O)[C@H](Cc1ccccc1)NC(=O)[C@H](Cc1ccccc1)NC(=O)[C@@H](NC(=O)[C@H](CC(=O)O)NC(=O)[C@H](CC(C)C)NC(=O)[C@H](CCCCN)NC(=O)[C@@H](N)CCCCN)[C@@H](C)O)C(C)C)C(=O)N[C@@H](Cc1ccccc1)C(=O)N[C@H](C(=O)N[C@@H](CCC(=O)O)C(=O)N[C@@H](CCCNC(=N)N)C(=O)O)[C@@H](C)O` [SEQ ID NO: 552] (H-KKLDTFFVYLSLFTER-OH; N-terminus and C-terminus assumed), the solubility entry in the data set “Solubility” is recorded as “soluble in aqueous solution”. Turning to `CC(C)C[C@H](NC(=O)[C@H](C)NC(=O)[C@H](CC(N)=O)NC(=O)[C@H](CCC(N)=O)NC(=O)[C@H](Cc1ccccc1)NC(=O)[C@H](CCCCN)NC(=O)[C@H](Cc1ccc(O)cc1)NC(=O)[C@H](CCC(=O)O)NC(=O)CNC(=O)[C@H](CC(C)C)NC(=O)[C@H](CCC(N)=O)NC(=O)[C@H](CCC(=O)O)NC(=O)[C@H](Cc1ccccc1)NC(=O)[C@H](CC(C)C)NC(=O)[C@@H](N)CCC(=O)O)C(=O)N[C@@H](CC(C)C)C(=O)N[C@H](C(=O)N[C@@H](CCCNC(=N)N)C(=O)O)C(C)C` [P3027] (H-ELFEQLGEYKFQNALLVR-OH; N-terminus and C-terminus assumed), the “effect on NK-cell cytotoxicity (percent specific lysis of K562)” value with K562 target cells is given as “Inhibition was not seen”. For CLRLIVMCG [SEQ ID NO: 266], the “binding of cyclic peptides to P3028” value with P3028 was “highest affinity”. Regarding “VFDEFKPLVE (listed as Homo sapiens) [P3325]”, in the data set on P3028, dHSA, HSA, the “binding of rabbit anti-P3028 serum antibodies to P3028 fragments” value is given as “bound preferentially”. Also, in the data set on PBMCs, the “inhibition of IL-2 induced proliferation” value is given as “much weaker” and the “neutralization of the inhibitory effect of P3028 on IL-2 induced proliferation” value is recorded as “do not inhibit”. As to CLRLNVFCG [SEQ ID NO: 265], the “binding of cyclic peptides to P3028” value in the data set with P3028 was “highest affinity”.

The values above are taken from patent US10881709B2, “Immune system modulators and compositions” (Canimguide Therapeutics AB, priority 2015, dated 2021).
